This note sets out measurements from ChEMBL document CHEMBL1139221, “2-(4-Chlorobenzyl)-3-hydroxy-7,8,9,10-tetrahydrobenzo[H]quinoline-4-carboxylic acid (PSI-697): identification of a clinical candidate from the quinoline salicylic acid series of P-selectin antagonists” (J Med Chem, 2007).

The source made the active and inactive calls. The rule behind the calls is not given here.

One test concerns the target T1, P-selectin (Homo sapiens) (UniProt P16109).
T1 sequence (whole entry): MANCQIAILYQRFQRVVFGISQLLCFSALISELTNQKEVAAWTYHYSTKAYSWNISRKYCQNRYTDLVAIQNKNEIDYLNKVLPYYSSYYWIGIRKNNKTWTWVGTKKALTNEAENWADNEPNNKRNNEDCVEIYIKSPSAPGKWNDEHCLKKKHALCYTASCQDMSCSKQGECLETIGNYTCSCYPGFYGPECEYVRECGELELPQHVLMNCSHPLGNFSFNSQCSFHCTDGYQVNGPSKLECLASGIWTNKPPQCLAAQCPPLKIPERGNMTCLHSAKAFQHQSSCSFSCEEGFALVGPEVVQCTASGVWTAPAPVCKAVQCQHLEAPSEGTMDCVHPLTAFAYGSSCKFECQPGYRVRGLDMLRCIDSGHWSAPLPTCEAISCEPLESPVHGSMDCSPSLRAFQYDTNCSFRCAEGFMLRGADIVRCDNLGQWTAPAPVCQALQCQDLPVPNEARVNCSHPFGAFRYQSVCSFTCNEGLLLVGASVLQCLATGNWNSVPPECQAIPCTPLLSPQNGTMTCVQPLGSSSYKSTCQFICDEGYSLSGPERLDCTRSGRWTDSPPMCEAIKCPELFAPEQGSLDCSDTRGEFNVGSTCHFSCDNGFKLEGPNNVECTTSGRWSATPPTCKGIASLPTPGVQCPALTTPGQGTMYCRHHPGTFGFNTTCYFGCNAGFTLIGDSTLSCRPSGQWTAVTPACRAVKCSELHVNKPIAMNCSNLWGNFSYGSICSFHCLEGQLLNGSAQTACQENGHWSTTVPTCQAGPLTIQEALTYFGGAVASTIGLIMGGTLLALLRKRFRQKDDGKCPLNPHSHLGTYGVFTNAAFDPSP
Briefly: Inhibition of P-Selectin by Biacore assay at 500 uM. A general note: SPR reads the build-up and loss of mass on a sensor chip optically.
By inhibition is commonly meant how much of the control response was suppressed. Low values mean little suppression, high ones strong suppression. With `O=C(O)c1c(O)c(Cc2c[nH]c3ccccc23)nc2c(C(F)(F)F)cccc12`, the inhibition amounted to 15%.
On the same count and under the same terms, to `CC(=O)n1cc(Cc2nc3c4c(ccc3c(C(=O)O)c2O)CCCC4)c2ccccc21` belongs 34%; to `CC(C)(C)c1cccc2c(C(=O)O)c(O)c(Cc3ccc(Cl)cc3)nc12`, 12%.
On the same count and under the same terms, to `O=C(O)c1c(O)c(Cc2c[nH]c3ccccc23)nc2c(Br)cccc12` belongs 15%; to `Cc1cccc2c(C(=O)O)c(O)c(Cc3c[nH]c4ccccc34)nc12`, 11%; to `O=C(O)c1c(O)c(Cc2ccc(Cl)cc2)nc2c(F)cccc12`, 12%.
Same read-out and setting: to `O=C(O)c1c(O)c(Cc2ccc(Cl)c(Cl)c2)nc2c3c(ccc12)CCCC3` belongs 36%; to `O=C(O)c1ccc(Cc2nc3c4c(ccc3c(C(=O)O)c2O)CCCC4)cc1`, 10%; to `Cc1ccc2c(C(=O)O)c(O)c(Cc3ccc(Cl)cc3)nc2c1`, 12%.
As to `CCc1ccc2c(C(=O)O)c(O)c(Cc3ccc(Cl)cc3)nc2c1`, the inhibition was 19%.

In the next test the target is T1, P-selectin (Homo sapiens). Briefly: (§1) Inhibition of P-Selectin by Biacore assay.
For `Cc1ccc2nc(Cc3c[nH]c4ccccc34)c(O)c(C(=O)O)c2c1`, the result was inactive.
Still for that read-out and setting: to `O=C(O)c1c(O)c(Cc2ccc(Cl)cc2)nc2c3c(ccc12)CCN(C(=O)c1ccccc1)C3` belongs “inactive”; to `O=C(O)c1c(O)c(Cc2c[nH]c3ccccc23)nc2c(F)cccc12`, “inactive”; to `O=C(O)c1c(O)c(Cc2cn(C(=O)Cc3ccccc3)c3ccccc23)nc2c3c(ccc12)CCCC3`, “inactive”.
On the same count and under the same terms, the value for `O=C(O)c1c(O)c(Cc2c[nH]c3ccccc23)nc2cc(Br)ccc12` was “inactive”.
On the same count and under the same terms, the value for `O=C(O)c1c(O)c(Cc2c[nH]c3ccccc23)nc2ccccc12` was “inactive”; that for `Cc1ccc2c(C(=O)O)c(O)c(Cc3c[nH]c4ccccc34)nc2c1` was “inactive”.
As for `NC(=O)N1CCc2ccc3c(C(=O)O)c(O)c(Cc4ccc(Cl)cc4)nc3c2C1`, the outcome was inactive.
Still for that read-out and setting: to `O=C(O)c1c(O)c(Cc2ccc(Cl)cc2)nc2c3c(ccc12)CCN(Cc1ccccc1)C3` belongs “inactive”; to `O=C(O)c1c(Cc2ccc(Cl)cc2)nc2c3c(ccc2c1O)CCCC3`, “inactive”.
Turning to `O=C(OCc1ccccc1)c1c(OCc2ccccc2)c(Cc2ccc(Cl)cc2)nc2c3c(ccc12)CCCC3`, the result was inactive.
Same read-out and setting: the value for `CC(C)N1CCc2ccc3c(C(=O)O)c(O)c(Cc4ccc(Cl)cc4)nc3c2C1` was “inactive”; that for `CCN1CCc2ccc3c(C(=O)O)c(O)c(Cc4ccc(Cl)cc4)nc3c2C1` was “inactive”; that for `O=C(O)c1c(O)c(Cc2ccc(Cl)cc2)nc2ccccc12` was “inactive”.
Same read-out and setting: the value for `COc1ccc(-c2ccccc2)c2nc(Cc3ccc(Cl)cc3)c(O)c(C(=O)O)c12` was “inactive”.
Turning to `O=C(O)c1c(O)c(Cc2ccc(Cl)cc2)nc2c3c(ccc12)CCNC3`, the outcome was inactive.
On the same count and under the same terms, the value for `CCc1ccc2c(C(=O)O)c(O)c(Cc3c[nH]c4ccccc34)nc2c1` was “inactive”; that for `O=C(O)c1c(O)c(Cc2c[nH]c3ccccc23)nc2ccc(Br)cc12` was “inactive”; that for `O=C(O)c1c(O)c(Cc2c[nH]c3ccccc23)nc2c(Cl)cccc12` was “inactive”.
For the compound `O=C(O)c1c(O)c(Cc2c[nH]c3ccccc23)nc2ccc(F)cc12`, the outcome was inactive.
For the compound `CC(=O)N1CCc2ccc3c(C(=O)O)c(O)c(Cc4ccc(Cl)cc4)nc3c2C1`, the result was inactive.
Same read-out and setting: the value for `O=C(O)c1c(O)c(Cc2c[nH]c3ccccc23)nc2ccc(OC(F)(F)F)cc12` was “inactive”.
Same read-out and setting: to `CCOC(=O)N1CCc2ccc3c(C(=O)O)c(O)c(Cc4ccc(Cl)cc4)nc3c2C1` belongs “inactive”.
On the same count and under the same terms, to `O=C(O)c1c(O)c(Cc2csc3ccc(Cl)cc23)nc2c3c(ccc12)CCCC3` belongs “inactive”; to `CC(C)OC(=O)n1cc(Cc2nc3c4c(ccc3c(C(=O)O)c2O)CCCC4)c2ccccc21`, “inactive”.

For another test, the target named is T2, P-selectin (Homo sapiens, UniProt P16109).
T2 sequence (P16109 whole entry): T1 sequence (whole entry)
Described as §1.
Usually IC50 stands for the concentration that inhibits the measured activity by half. As to `O=C(O)c1c(O)c(Cc2ccc(Cl)cc2)nc2c3c(ccc12)CCC3`, the half-maximal inhibitory concentration (IC50) turned out to be 580 µM.
The same measure, in the same setting: the value for `O=C(O)c1c(O)c(Cc2coc3ccccc23)nc2c3c(ccc12)CCCC3` was 225 µM; that for `O=C(O)c1c(O)c(-c2ccccc2)nc2ccccc12` [OXYCINCHOPHEN] was 6500 µM; that for `CC(C)c1cccc2c(C(=O)O)c(O)c(Cc3c[nH]c4ccccc34)nc12` was 415 µM.
Consider `COC(=O)Oc1c(Cc2ccc(Cl)cc2)nc2c3c(ccc2c1C(=O)O)CCCC3`, for which half-maximal inhibition (IC50) was put at 400 µM.
Same read-out and setting: the value for `Cc1ccc(-c2nc3c4c(ccc3c(C(=O)O)c2O)CCCC4)s1` was 200 µM.
Turning to `O=C(O)c1c(O)c(Cc2ccc(Cl)cc2)nc2c(C(F)(F)F)cccc12`, the half-inhibitory concentration (IC50) is 325 µM.
The same measure, in the same setting: the value for `O=C(Oc1c(Cc2ccc(Cl)cc2)nc2c3c(ccc2c1C(=O)O)CCCC3)c1ccccc1` was 190 µM; that for `O=C(O)c1c(O)c(Cc2ccc(Cl)cc2)nc2cc(Cl)ccc12` was 900 µM; that for `CC(C)S(=O)(=O)N1CCc2ccc3c(C(=O)O)c(O)c(Cc4ccc(Cl)cc4)nc3c2C1` was 500 µM.
As for `Cc1cccc2c(C(=O)O)c(O)c(Cc3ccc(Cl)cc3)nc12`, the IC50 was 1000 µM.
Still for that read-out and setting: to `Cc1[nH]c2ccccc2c1Cc1nc2c3c(ccc2c(C(=O)O)c1O)CCCC3` belongs 270 µM; to `O=C(O)c1c(O)c(-c2ccccc2)nc2c3c(ccc12)CCCC3`, 550 µM.
On the same count and under the same terms, the value for `O=C(O)c1c(O)c(Cc2ccc(Cl)cc2)nc2c(-c3ccsc3)cccc12` was 225 µM.
Still for that read-out and setting: to `COc1ccc2[nH]cc(Cc3nc4c5c(ccc4c(C(=O)O)c3O)CCCC5)c2c1` belongs 400 µM; to `O=C(Oc1c(Cc2ccc(Cl)cc2)nc2c3c(ccc2c1C(=O)O)CCCC3)c1cccs1`, 175 µM; to `CS(=O)(=O)N1CCc2ccc3c(C(=O)O)c(O)c(Cc4ccc(Cl)cc4)nc3c2C1`, 625 µM.
As for `O=C(O)c1c(O)c(Cc2ccc(Cl)cc2)nc2c(OC(F)(F)F)cccc12`, the 50% inhibitory concentration (IC50) stood at 550 µM.
Same read-out and setting: the value for `CC(C)c1cccc2c(C(=O)O)c(O)c(Cc3ccc(Cl)cc3)nc12` was 225 µM; that for `O=C(O)c1c(O)c(Cc2ccccc2)nc2c3c(ccc12)CCCC3` was 413 µM.
Same read-out and setting: to `O=C(O)c1c(O)c(-c2c[nH]c3ccccc23)nc2c3c(ccc12)CCCC3` belongs 225 µM.
On the same count and under the same terms, the value for `CCc1cccc2c(C(=O)O)c(O)c(Cc3ccc(Cl)cc3)nc12` was 250 µM.
Consider `CC(=O)Oc1c(Cc2ccc(Cl)cc2)nc2c3c(ccc2c1C(=O)O)CCCC3`, for which the IC50 is 545 µM.
Same read-out and setting: the value for `O=C(O)c1c(O)c(Nc2ccc(Cl)cc2)nc2c(C(F)(F)F)cccc12` was 125 µM; that for `NC(=O)c1ccc(Cc2nc3c4c(ccc3c(C(=O)O)c2O)CCCC4)cc1` was 1250 µM; that for `O=C(O)c1c(O)c(Cc2ccc(Cl)cc2)nc2ccc(Br)cc12` was 650 µM.
Still for that read-out and setting: to `O=C(O)c1c(O)c(Cc2ccc(Cl)cc2)nc2c(-c3ccoc3)cccc12` belongs 150 µM; to `O=C(O)c1c(O)c(Cc2ccc(Cl)cc2)nc2c(-c3ccccc3)cccc12`, 200 µM.
Same read-out and setting: the value for `O=C(O)c1c(O)c(Cc2ccc(OC(F)(F)F)cc2)nc2c3c(ccc12)CCCC3` was 610 µM; that for `CC(C)COC(=O)Oc1c(Cc2ccc(Cl)cc2)nc2c3c(ccc2c1C(=O)O)CCCC3` was 250 µM; that for `O=C(O)c1c(O)c(Cc2c[nH]c3ccc(Br)cc23)nc2c3c(ccc12)CCCC3` was 175 µM.
As for `O=C(O)c1c(OCc2ccccc2)c(Cc2ccc(Cl)cc2)nc2c3c(ccc12)CCCC3`, inhibition was half-maximal at 390 µM (IC50).
Still for that read-out and setting: to `O=C(O)c1c(O)c(Cc2ccc(Cl)cc2)nc2c(Br)cccc12` belongs 425 µM.
In turn, `O=C(O)c1c(O)c(Cc2ccc(Cl)cc2)nc2c(Cl)cccc12` came in with a 50% inhibitory concentration (IC50) of 715 µM.
On the same count and under the same terms, the value for `N#Cc1ccc(Cc2nc3c4c(ccc3c(C(=O)O)c2O)CCCC4)cc1` was 500 µM.
Regarding `CCC(C)c1cccc2c(C(=O)O)c(O)c(Cc3ccc(Cl)cc3)nc12` (centres undefined), half-maximal inhibition (IC50) was put at 300 µM.
On the same count and under the same terms, the value for `Cc1ccc2c(C(=O)O)c(O)c(-c3ccccc3)nc2c1C` was 1500 µM; that for `Cc1ccc2[nH]cc(Cc3nc4c5c(ccc4c(C(=O)O)c3O)CCCC5)c2c1` was 200 µM; that for `O=C(O)c1c(O)c(Cc2csc3ccccc23)nc2c3c(ccc12)CCCC3` was 100 µM.
Same read-out and setting: to `O=C(O)c1c(O)c(Cc2ccsc2)nc2c3c(ccc12)CCCC3` belongs 475 µM; to `O=C(O)c1c(O)c(CCc2ccccc2)nc2c3c(ccc12)CCCC3`, 450 µM; to `O=C(O)c1c(OC(=O)C2CCCCC2)c(Cc2ccc(Cl)cc2)nc2c3c(ccc12)CCCC3`, 175 µM.
Still for that read-out and setting: to `O=C(O)c1c(O)c(Cc2c[nH]c3ccccc23)nc2c(-c3ccsc3)cccc12` belongs 380 µM; to `O=C(O)c1c(O)c(Cc2cccs2)nc2c3c(ccc12)CCCC3`, 413 µM.
